Legend:
[1] = system: HUVEC monolayers; assay: PM-ECIS resistance of HUVEC monolayers on 6-well inserts after thrombin barrier disruption; assay type: cell-based, human; settings: 1 U/mL thrombin in fresh media, HUVECs, 6-well PM-ECIS
Protocol: A lock-in amplifier (LIA) (SR850, Stanford Research Systems) was used to simultaneously generate AC current and read impedance data from the devices. An Arduino-operated multiplexer was used to switch between devices. Using a 1 V rms input voltage, in series with a 1 MΩ resistor, electrodes (typ. 500 μm dia.) were stimulated at frequencies of 400, 4000 and 40000 Hz, and any voltage drops (at the locked frequencies) across the electrodes were sampled with the LIA every 15 or 60 mins. Prior to use, the devices without cells were left in media for at least 12 hours to record a stable cell-free impedance baseline for each electrode at each frequency.
Cell barrier resistance (Rb), capacitance (Cm), and basal barrier beneath the cells (a) were modeled and calculated using ECIS Core software (Applied Biophysics, v1.2.215.0 PC) using the raw impedance values taken at 400, 4000, and 40000 Hz.

[2] = system: confluent monolayer of HUVECs; assay: PM-ECIS resistance (4 kHz) response to EGTA and thrombin barrier disruption, 250/500/750 μm electrodes; assay type: cell-based, human; settings: all electrode sizes
From the text: The PM-ECIS devices were connected to a 24-channel multiplexer, which in turn connected to a phase-sensitive lock-in amplifier (LIA) and computer (FIG. 9D), The overall circuit for the ECIS system follows the set up described by Giaever and Keese. The LIA acts to both generate an alternating current signal, and receive signal measured across the cell layer. An alternating current signal of 1 V rms was generated at a specified frequency, connected to a 1 MΩ resistor to provide a 1 μA current. Cell-free devices were filled with culture medium and measurements taken over at least 12 hours to establish baseline impedance. The voltage drop across the device containing cells grown on electrodes was detected and measured by the LIA, which allows for small AC signals to be resolved in high noise systems. A cell-free baseline was established beforehand using cell-free devices filled with culture medium and impedance measurements taken over the course of at least 12 hours prior to cell seeding. LIA outputs including voltage drop and phase angle were used to calculate and plot impedance and resistance values.
Cells were incubated in 5 mM EGTA (Sigma-Aldrich, E3889) diluted in Endothelial Growth Medium at 37° C. and 5% CO2 for 2 hours, with ECIS measurements taken every 15 min. After 2 hours, EGTA was removed and replaced with fresh growth medium. For transient disruption of the endothelial barrier, cells were stimulated with 1 U/mL of thrombin from bovine plasma (Sigma-Aldrich, T6634) diluted in Endothelial Growth Medium at 37° C. and 5% CO2 for 2 hours, with measurements taken every 5 min.
To assess the effect of electrode size in PM-ECIS response to barrier disruption, a confluent monolayer of HUVECs was subjected to 2-hour treatment with EGTA. EGTA disrupts cell barriers by chelating Ca2+ ions to destabilize tight junctions. […]

Compound	change in 4 kHz PM-ECIS resistance after addition of thrombin [1]	change in resistance after thrombin treatment ([2]; 1 U/mL thrombin, 4 kHz)	time for resistances to return to or close to pre-treatment values ([2]; 1 U/mL thrombin)	time to drop in resistance after treatment ([2]; 5 mM EGTA, 4 kHz)
thrombin: thrombin from bovine plasma (Sigma), used to disrupt cell-cell junctions	acute resistance drop	immediate drop in resistance	≤ 120 min	–
O=C(O)CN(CCOCCOCCN(CC(=O)O)CC(=O)O)CC(=O)O [EGTA, ethylene glycol-bis(β-aminoethyl ether)-N,N,N′,N′-tetraacetic acid]	–	–	–	≤ 15 min

Reference: patent US20250013155A1, “MICROFLUIDIC POROUS MEMBRANE ELECTRICAL CELL-SUBSTRATE IMPEDANCE SENSING” (THE GOVERNING COUNCIL OF THE UNIVERSITY OF TORONTO, priority 2023, published 2025)
